This passage reports TGI and GI50 results from PubChem BioAssay (NCI).

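Where inhibition never reached the appropriate level, the endpoint shown equals the highest concentration tested. Otherwise, values were interpolated linearly from a five-concentration, 48-hour dose response in 96-well plates. GI50: concentration for 50% inhibition of growth. TGI is the concentration that stops growth completely.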 Where only a bound is given, the exact number is not on record here.

For one assay, the system named is SF-268 CNS. Briefly: DTP human tumour cell line panel, 48 h.
As usually defined, the TGI is the concentration giving total growth inhibition. In turn, `COc1cc(NCc2ccc3oc(=O)c(-c4ccccc4)nc3c2)cc(OC)c1OC` displayed a total growth inhibition concentration (TGI) of over 10 µM.
Same read-out and setting: then `CCc1cc(Cc2cc(CC)c(NC(=O)C(=O)Cc3ccccn3)c(CC)c2Cl)c(Cl)c(CC)c1NC(=O)C(=O)Cc1ccccn1`, with over 100 µM; and `CC(C)OP(=O)(OC(C)C)C(=NCCN=C(NNc1ccc([N+](=O)[O-])cc1)P(=O)(OC(C)C)OC(C)C)NNc1ccc([N+](=O)[O-])cc1`, with over 100 µM; and `COC(OC)C(C)CC(=O)N(C)C` (configuration not stated), with over 100 µM.
The molecule `O=S1(=O)OCCOS(=O)(=O)C1Br` showed a TGI of over 100 µM.
In the case of `CC(C)=Cc1cc(C(=O)Nc2ccc(Cl)c(Cl)c2)nc(N)n1`, the TGI is over 100 µM.
The same measure, in the same setting: as for `C#CC1(O)CCC2C3CCc4cc(Oc5nc(F)nc(-c6c7ccccc7c7sc8ccccc8n67)n5)ccc4C3CC[C@@]21C` (some centres not stated), the figure is over 100 µM.
The same measure, in the same setting: as for `CC(=O)/C(=C\c1cccc([N+](=O)[O-])c1)C(=O)Nc1ccccc1C`, the figure is over 100 µM; as for `Clc1ccc(C(c2ccc(Cl)cc2)c2ccccn2)cc1`, 69.7 µM.
On the same count and under the same terms, then `C[Si](C)(C)C1(Sc2ccccc2)SCCCS1`, with over 100 µM; and `CC(C)(C)OC(=O)N[C@H]1CC2(C=C(Cl)C(=O)C(Cl)=C2)OC1=O`, with 32.3 µM.

For another assay, the system named is DU-145 prostate. The assay can be described thus: DTP human tumour cell line panel, 48 h.
In general, GI50 refers to the concentration at which growth is held to half of that of the control. As for `COc1cc(/C=C2\CN(S(=O)(=O)c3ccccc3)C/C(=C\c3cc(CN4CCCC4)c(O)c(OC)c3)C2=O)cc(CN2CCCC2)c1O`, the GI50 was 0.542 µM and the TGI came to 1.91 µM.
For `CN1CCN(CCCn2c(=O)c3sc4ncccc4c3n3nnc(-c4ccccc4)c23)CC1`, the GI50 was 5.85 µM and the total growth inhibition concentration (TGI) was 12.2 µM.
`COC(=O)C1=C(C)NC(C)=C(C(=O)OCCCN2CCC(c3ccccc3)(c3ccccc3)CC2)C1c1cccc([N+](=O)[O-])c1` (configuration not stated) returned a concentration for total growth inhibition (TGI) of 3.31 µM.
In the case of `COc1ccc([C@H]2[C@@H](F)C(=O)N2c2cc(OC)c(OC)c(OC)c2)cc1F`, the GI50 was 0.269 µM and the concentration for total growth inhibition (TGI) is over 100 µM.
The molecule `CC1(C)C2CCC(=O)C1CC2` (configuration not stated) displayed a TGI of over 100 µM.
Molecule `COc1cc(NCc2ccc3oc(=O)c(-c4ccccc4)nc3c2)cc(OC)c1OC` came in with a TGI of over 10 µM.
On the same count and under the same terms, then `CC(C)(C)OC(=O)N[C@H]1CC2(C=C(Cl)C(=O)C(Cl)=C2)OC1=O`, with 78.9 µM.

For the next assay, the system named is NCI-H23 lung. The assay can be described thus: DTP human tumour cell line panel, 48 h.
Molecule `CCOC(=O)NC(=O)c1cn(CCCO)c(=O)[nH]c1=O` returned a concentration for total growth inhibition (TGI) of over 100 µM.
In the case of `CCN1c2ccccc2C(C(SC)S(=O)(=O)c2ccc(C)cc2)c2c1[nH]c(=O)n(C)c2=O` (configuration not stated), the total growth inhibition concentration (TGI) was over 100 µM.
In turn, `COc1ccc(S(=O)(=O)NNS(C)(=O)=O)cc1` yielded a concentration for total growth inhibition (TGI) of over 100 µM.
As for `CN1CCN(CCCn2c(=O)c3sc4ncccc4c3n3nnc(-c4ccccc4)c23)CC1`, the GI50 was 8.07 µM and the TGI is 15.3 µM.
In the case of `CC(=O)OC1COC(n2ccc3cc(Br)c([N+](=O)[O-])cc32)C(OC(C)=O)C1OC(C)=O` (configuration not stated), the total growth inhibition concentration (TGI) was found to be 61.3 µM. In other words, the double-digit micromolar range.
`Cn1cnc([N+](=O)[O-])c1Sc1nc2ccccc2[nH]1` showed a TGI of 48.4 µM. The TGI values of the last two molecules are within 1.5-fold of each other.
The same measure, in the same setting: then `COC(=O)C1=C(C)NC(C)=C(C(=O)OCCCN2CCC(c3ccccc3)(c3ccccc3)CC2)C1c1cccc([N+](=O)[O-])c1` (configuration not stated), with 3.32 µM.
Consider `COc1ccc([C@H]2[C@@H](F)C(=O)N2c2cc(OC)c(OC)c(OC)c2)cc1F`, for which the GI50 is 0.273 µM and the TGI is over 100 µM.
Consider `CC1(C)C2CCC(=O)C1CC2` (configuration not stated), for which the TGI is over 100 µM.
Turning to `CCCCCCN(CCCCCC)C(=O)Cc1c2n(c3ccccc13)Cc1ccccc1-2`, the concentration for total growth inhibition (TGI) was over 100 µM.
Regarding `C/C(=N\NC(=S)NC(CCC(=O)O)C(=O)O)c1ccccn1` (configuration not stated), the TGI was over 100 µM.
Consider `Brc1ccccc1C1SCc2nc3ccccc3n21` (configuration not stated), for which the TGI amounted to 33.3 µM.
Take `O=C(/C=C\c1ccc(Cl)c(Cl)c1)c1ccc(Cl)cc1Cl`: the TGI is 14.1 µM.
On the same count and under the same terms, as for `CCOC(=O)C(=C=C=C(c1ccccc1)c1ccccc1)C(=O)OCC`, the figure is over 100 µM; as for `Cn1c2ccccc2c2cc(-c3ccccc3)c3c(c21)C(=O)c1ccccc1C3=O`, 22.8 µM; as for `c1ccc(COc2cccc3ccc[n+](Cc4ccccc4)c23)cc1`, 23.9 µM.
Regarding `CN(C)c1ccc(/C=C(\NC(=O)c2ccccc2)c2nc3ncncc3[nH]2)cc1`, the TGI was over 100 µM.
Still for that read-out and setting: then `CC1=CC(O)(c2ccc(-c3ccccc3Cl)cc2)OC1=O` (configuration not stated), with over 100 µM; and `CCOC(=O)CC(=O)ON(C)C(C)=O`, with over 100 µM.
On the same count and under the same terms, then `COc1cc(NCc2ccc3oc(=O)c(-c4ccccc4)nc3c2)cc(OC)c1OC`, with over 10 µM; and `CCc1cc(Cc2cc(CC)c(NC(=O)C(=O)Cc3ccccn3)c(CC)c2Cl)c(Cl)c(CC)c1NC(=O)C(=O)Cc1ccccn1`, with over 100 µM; and `CC(C)OP(=O)(OC(C)C)C(=NCCN=C(NNc1ccc([N+](=O)[O-])cc1)P(=O)(OC(C)C)OC(C)C)NNc1ccc([N+](=O)[O-])cc1`, with 5.23 µM.
The same measure, in the same setting: then `O=S1(=O)OCCOS(=O)(=O)C1Br`, with over 100 µM; and `CC(C)=Cc1cc(C(=O)Nc2ccc(Cl)c(Cl)c2)nc(N)n1`, with over 100 µM.
As to `C#CC1(O)CCC2C3CCc4cc(Oc5nc(F)nc(-c6c7ccccc7c7sc8ccccc8n67)n5)ccc4C3CC[C@@]21C` (some centres not stated), the TGI is over 100 µM.
Still for that read-out and setting: then `CC(=O)/C(=C\c1cccc([N+](=O)[O-])c1)C(=O)Nc1ccccc1C`, with over 100 µM; and `Clc1ccc(C(c2ccc(Cl)cc2)c2ccccn2)cc1`, with over 100 µM.
Consider `C[Si](C)(C)C1(Sc2ccccc2)SCCCS1`, for which the total growth inhibition concentration (TGI) was over 100 µM.
Same read-out and setting: as for `CC(C)(C)OC(=O)N[C@H]1CC2(C=C(Cl)C(=O)C(Cl)=C2)OC1=O`, the figure is 33.7 µM; as for `O=c1cc(-c2ccccc2)oc2cc(OCCCOc3ccc4c(=O)cc(-c5ccccc5)oc4c3)ccc12`, over 100 µM.

The test system of another assay is RPMI-8226 leukemia. The assay can be described thus: DTP human tumour cell line panel, 48 h.
Molecule `CCOC(=O)NC(=O)c1cn(CCCO)c(=O)[nH]c1=O` showed a TGI of over 100 µM.
Molecule `CCN1c2ccccc2C(C(SC)S(=O)(=O)c2ccc(C)cc2)c2c1[nH]c(=O)n(C)c2=O` (configuration not stated) gave a concentration for total growth inhibition (TGI) of over 100 µM.
In turn, `COc1ccc(S(=O)(=O)NNS(C)(=O)=O)cc1` showed a concentration for total growth inhibition (TGI) of over 100 µM.
With `COc1cc(/C=C2\CN(S(=O)(=O)c3ccccc3)C/C(=C\c3cc(CN4CCCC4)c(O)c(OC)c3)C2=O)cc(CN2CCCC2)c1O`, the GI50 was 1.55 µM and the concentration for total growth inhibition (TGI) came to 5.03 µM.
In the case of `CN1CCN(CCCn2c(=O)c3sc4ncccc4c3n3nnc(-c4ccccc4)c23)CC1`, the GI50 was 6.1 µM and the concentration for total growth inhibition (TGI) is 15.8 µM.
`CC(=O)OC1COC(n2ccc3cc(Br)c([N+](=O)[O-])cc32)C(OC(C)=O)C1OC(C)=O` (configuration not stated) showed a TGI of over 100 µM.
On to `Cn1cnc([N+](=O)[O-])c1Sc1nc2ccccc2[nH]1`, for which the TGI was 56.4 µM.
